Data from US6635437B2, “Compounds, compositions and methods for generating chemiluminescence with phosphatase enzymes” (Lumigen, Inc., priority 1996, dated 2003).

Key:
Assay type in all cases: biochemical
[1] = tested on: alkaline phosphatase (AP); test: Chemiluminescent detection of alkaline phosphatase with acridan phosphate and surfactant enhancer; conditions: for Rel. (S/B normalized to the results obtained with no enhancer) / S/B (ratio of light intensities with AP and with no enzyme): acridan 1 with 10^−16 mol of AP, each surfactant at the concentration producing the greatest enhancement
[2] = tested on: alkaline phosphatase (AP); test: Chemiluminescent detection of alkaline phosphatase with acridan phosphate and cationic aromatic compound (CAC); conditions: for S at 36 min (plateau intensity): 21 mM CAC in DMSO diluted 1:1000 into compound 5 in 0.1 M tris pH 8.8
acid phosphatase (AcP) = test: Chemiluminescent detection of acid phosphatase and inhibition by tartrate
Procedure: The quenching of emission was not due to a reduction of the pH since addition of 10 μL of citrate buffer caused only a 25% reduction in light intensity.

[3] = 4×10^−16 mol AP, room temperature

Compound	Rel. (S/B normalized to the results obtained with no enhancer) [1]	S/B (ratio of light intensities with AP and with no enzyme) [1]	S at 36 min (plateau intensity) [2, 3]	further results
1-trioctylphosphoniummethyl-4-tributylammonium-methylbenzene, mixed bromide chloride salt [Surfactant G]	4.5	63	–	–
9-(2,6-Dimethylphenylthiophosphoryloxymethylidene)-10-methylacridan. disodium salt [Compound 9]	–	–	781	–
9-(2′,2′,2′-Trifluoroethylthiophosphoryloxymethylidene)-10-methylacridan, disodium salt [Compound 11]	–	–	9.3	–
9-(3,5-Dimethylphenoxy)phohosphoryloxymethylidene)-10-methylacridan. disodium salt [Compound 2]	–	–	45.3	–
9-(4-Fluorophenylthiophosphoryloxymethylidene)-10-methylacridan, disodium salt [Compound 7]	–	–	61.6	time to stable plateau of chemiluminescence intensity ([2]; 0.66 mM 7, 6.4 μM lucigenin, SDS, Na2SO3, TWEEN 20, tris pH 8.8, 8×10^−16 mol AP, room temperature): under 5 sec
9-(4-Methoxyphenylthiophosphoryloxymethylidene)-10-methylacridan, disodium salt [Compound 8]	–	–	19.1	–
9-(Phenylthiophosphoryloxymethylidene)-2,7-difluoro-10-methylacridan, disodium salt [Compound 10]	–	–	21.1	–
C[n+]1c2ccccc2c(-c2c3ccccc3[n+](C)c3ccccc23)c2ccccc21.O=[N+]([O-])[O-].O=[N+]([O-])[O-] [CAC 1, N,N′-dimethylbiacridinium dinitrate, reference compound]	–	–	–	effect of lucigenin on light intensity ([2]; 6.4 μM lucigenin, 0.66 mM 5, 0.1 M tris pH 8.8, 8×10^−16 mol AP, 25° C.): much higher light intensity; signal (S) versus control without lucigenin ([2]; 6.4 mM to 6.4 nM lucigenin, 0.66 mM 5, tris pH 8.8, 4×10^−16 mol AP, 3.5 min, room temperature): higher signal (S) than the control
O=S([O-])[O-].[Na+].[Na+] [Na2SO3, sodium sulfite]	–	–	–	background signal (B) in the absence of AP versus control ([2]; Na2SO3 1.0 mg/mL to 1.0 μg/mL in Reagent A): lower background signal (B); signal (S) versus control ([2]; Na2SO3 1.0 mg/mL to 1.0 μg/mL in Reagent A, 4×10^−16 mol AP, 3.5 min, room temperature): higher signal (S) than the control
CCCCCCCC[P+](CCCCCCCC)(CCCCCCCC)Cc1ccc(C[P+](CCCC)(CCCC)CCCC)cc1.[Cl-].[Cl-] [Surfactant E, 1-trioctylphosphoniummethyl-4-tributylphosphonium-methylbenzene dichloride]	11.6	162	–	–
CCCCCCCCCCCCOS(=O)(=O)[O-].[Na+] [Surfactant H, sodium dodecyl sulfate]	1.9	26	–	rise to peak signal versus control without SDS ([2]; SDS 10 mg/mL to 10 μg/mL, 0.66 mM 5, tris pH 8.8, 4×10^−16 mol AP, room temperature): faster rise to peak signal
CCCCCCCCCCCCCCCC[N+](C)(C)C.[Br-] [Surfactant I, cetyltrimethylammonium bromide]	1.7	24	–	–
CCCCCCCC[N+](CCCCCCCC)(CCCCCCCC)Cc1ccc(C[N+](CCCC)(CCCC)CCCC)cc1.[Cl-].[Cl-] [Surfactant J, 1-trioctylammoniumnmethyl-4-tributylammoniummethylbenzene dichloride]	1.2	17	–	–
CN1c2ccccc2C(C(=O)Oc2ccccc2)c2ccccc21 [phenyl 10-methylacridan-9-carboxylate, reference compound]	–	–	–	effect of addition of AP on chemiluminescence ([1]; composition as Example 14 with the ester in place of 1): no effect
O=C(O)C(O)C(O)C(=O)O (stereo not shown) [tartrate, reference compound]	–	–	–	effect on light emission (inhibition of enzyme activity) (acid phosphatase (AcP); addition of 5 μL of 0.04 M tartrate in citrate buffer (0.09 M, pH 4.8)): complete extinction of light emission
(E, Z)-9-(2,6-Dimethylphenoxy)phosphoryloxymethylidene)-3-chloro-10-methylacridan, disodium salt [Compound 4]	–	–	4645	–
(E,Z)-9-(Phenoxy)phosphoryloxymethylidene)-3-methoxy-10-methylacridan, disodium salt [Compound 3]	–	–	5963	–
(E,Z)-9-(Phenoxy)phosphoryloxymethylidene)-12-methylbenz[c]acridan, disodium salt [Compound 6]	–	–	72.3	–
bovine serum albumin: the protein bovine serum albumin, added to the detection reagent	–	–	–	effect on duration of light emission (acid phosphatase (AcP); added to the detection reagent at 0.1%): prolonged the duration of light emission significantly
polyoxyethylene(20)sorbitan monolaurate [Surfactant F]	8.6	120	–	effect on duration of chemiluminescence ([2]; TWEEN 20 1.0% to 0.001%, Reagent A with 21 μM lucigenin, lacking Na2SO3, 4×10^−16 mol AP): effective in extending the duration of chemiluminescence at or near maximum intensity
